According to patent US9073873B2, “2-heterocyclylaminoalkyl-(p-quinone) derivatives for treatment of oxidative stress diseases” (Edison Pharmaceuticals, Inc., priority 2008, dated 2015):

Legend:
Type in all cases: cell-based
[1] = test system: human dermal fibroblasts from LHON patients; test: Rescue of fibroblasts from LHON patients from oxidative stress; conditions: Fibroblast, LHON cells GM03858, read-out: protection against LHON, EC50
Experimental: (§1) An initial screen was performed to identify compounds effective for the amelioration of redox disorders. Test samples, 4 reference compounds (idebenone, decylubiquinone, Trolox and α-tocopherol acetate), and solvent controls were tested for their ability to rescue FRDA fibroblasts stressed by addition of L-buthionine-(S,R)-sulfoximine (BSO), as described in Jauslin et al., Hum. Mol. Genet. 11(24):3055 (2002), Jauslin et al., FASEB J. 17:1972-4 (2003), and International Patent Application WO 2004/003565. […] This specific BSO-mediated cell death can be prevented by administration of antioxidants or molecules involved in the antioxidant pathway, such as α-tocopherol, selenium, or small molecule glutathione peroxidase mimetics. However, antioxidants differ in their potency, i.e. the concentration at which they are able to rescue BSO-stressed FRDA fibroblasts.
(§2) Test samples were screened according to the following protocol: A culture with FRDA fibroblasts was started from a 1 ml vial with approximately 500,000 cells stored in liquid nitrogen. Cells were propagated in 10 cm cell culture dishes by splitting every third day in a ratio of 1:3 until nine plates were available. Once confluent, fibroblasts were harvested. For 54 micro titer plates (96 well-MTP) a total of 14.3 million cells (passage eight) were re-suspended in 480 ml medium, corresponding to 100 μl medium with 3,000 cells/well. The remaining cells were distributed in 10 cm cell culture plates (500,000 cells/plate) for propagation. The plates were incubated overnight at 37° C. in a atmosphere with 95% humidity and 5% CO2 to allow attachment of the cells to the culture plate.
(§3) MTP medium (243 μl) was added to a well of the microtiter plate. The test compounds were unfrozen, and 7.5 μl of a 5 mM stock solution was dissolved in the well containing 243 μl medium, resulting in a 150 μM master solution. Serial dilutions from the master solution were made. The period between the single dilution steps was kept as short as possible (generally less than 1 second).
(§4) Plates were kept overnight in the cell culture incubator. The next day, 10 μl of a 10 mM BSO solution were added to the wells, resulting in a 1 mM final BSO concentration. Forty-eight hours later, three plates were examined under a phase-contrast microscope to verify that the cells in the 0% control (wells E1-H1) were clearly dead. The medium from all plates was discarded, and the remaining liquid was removed by gently tapping the plate inversed onto a paper towel.
(§5) 100 μl of PBS containing 1.2 μM Calcein AM were then added to each well. The plates were incubated for 50-70 minutes at room temperature. After that time the PBS was discarded, the plate gently tapped on a paper towel and fluorescence (excitation/emission wavelengths of 485 nm and 525 nm, respectively) was read on a Gemini fluorescence reader. Data was imported into Microsoft Excel (EXCEL is a registered trademark of Microsoft Corporation for a spreadsheet program) and used to calculate the EC50 concentration for each compound.
(§6) Compounds of the invention were tested using a screen similar to the one described in Example A, but substituting FRDA cells with Leber's Hereditary Optic Neuropathy (LHON) cells obtained from the Coriell Cell Repositories (Camden, N.J.; repository number GM03858). The compounds were tested for their ability to rescue human dermal fibroblasts from LHON patients from oxidative stress.

[2] = test system: human dermal fibroblasts from CoQ10 deficient patients; test: Rescue of fibroblasts from CoQ10 deficient patients from oxidative stress; conditions: Fibroblast, cells from CoQ10 deficient patients harboring a CoQ2 mutation, read-out: protection against CoQ10 deficiency, EC50
Experimental: as §1, §2, §3, §4, §5
Compounds of the invention were tested using a screen similar to the one described in Example A, but substituting FRDA cells with cells obtained from CoQ10 deficient patients harboring a CoQ2 mutation. The compounds were tested for their ability to rescue human dermal fibroblasts from CoQ10 deficient patients from oxidative stress.

[3] = test system: Human dermal fibroblasts from Friedreich's Ataxia patients; test: Rescue of BSO-stressed FRDA fibroblasts (Calcein AM viability); conditions: FRDA fibroblasts GM04078, BSO-stressed, read-out: protection against FRDA, EC50
Experimental: as §1
MEM (a medium enriched in amino acids and vitamins, catalog no. 1-31F24-I) and Medium 199 (M199, catalog no. 1-21F22-I) with Earle's Balanced Salts, without phenol red, were purchased from Bioconcept. Fetal Calf Serum was obtained from PAA Laboratories. Basic fibroblast growth factor and epidermal growth factor were purchased from PeproTech. Penicillin-streptomycin-glutamine mix, L-buthionine (S,R)-sulfoximine, (+)-α-tocopherol acetate, decylubiquinone, and insulin from bovine pancreas were purchased from Sigma. Trolox (6-Hydroxy-2,5,7,8-tetramethylchromane-2-carboxylic acid) was obtained from Fluka. Idebenone was obtained from Chemo Iberica. Calcein AM was purchased from Molecular Probes. Cell culture medium was made by combining 125 ml M199 EBS, 50 ml Fetal Calf Serum, 100 U/ml penicillin, 100 μg/ml streptomycin, 2 mM glutamine, 10 μg/ml insulin, 10 ng/ml EGF, and 10 ng/ml bFGF; MEM EBS was added to make the volume up to 500 ml. A 10 mM BSO solution was prepared by dissolving 444 mg BSO in 200 ml of medium (Invitrogen, Carlsbad, Ca.) with subsequent filter-sterilization. During the course of the experiments, this solution was stored at +4° C. The cells were obtained from the Coriell Cell Repositories (Camden, N.J.; repository number GM04078) and grown in 10 cm tissue culture plates. Every third day, they were split at a 1:3 ratio.
The test samples were supplied in 1.5 ml glass vials. The compounds were diluted with DMSO, ethanol or PBS to result in a 5 mM stock solution. Once dissolved, they were stored at −20° C. Reference antioxidants (idebenone, decylubiquinone, α-tocopherol acetate and Trolox) were dissolved in DMSO.
as §2, §3
Plates were kept overnight in the cell culture incubator. The next day, 10 μl of a 10 mM BSO solution were added to the wells, resulting in a 1 mM final BSO concentration. […]

[4] = test system: human dermal fibroblasts from Huntington's patients; test: Rescue of fibroblasts from Huntington's patients from oxidative stress; conditions: Fibroblast, Huntington's cells GM 04281, read-out: protection against Huntington's, EC50
Experimental: as §1, §2, §3, §4, §5
as §6, with “Huntington's” for “Leber's Hereditary Optic Neuropathy (LHON)”, “GM 04281).” for “GM03858).”, “Huntington's” for “LHON”

[5] = test system: human dermal fibroblasts from Parkinson's Disease patients; test: Rescue of fibroblasts from Parkinson's Disease patients from oxidative stress; conditions: Fibroblast, PD cells AG20439, read-out: protection against PD, EC50
Experimental: as §1, §2, §3, §4, §5
as §6, with “Example A […]” for “Example”, “Parkinson's Disease (PD)” for “Leber's Hereditary Optic Neuropathy (LHON)”, “AG20439).” for “GM03858).”, “Parkinson's Disease” for “LHON”

Measured: EC50

CC1=C(C)C(=O)C(CCNc2ccc(C(F)(F)F)cn2)=C(C)C1=O [2,3,5-Trimethyl-6-(2-(5-(trifluoromethyl)pyridin-2-ylamino)ethyl)cyclohexa-2,5-diene-1,4-dione]
< 100 nM: all assays above

CC1=C(C)C(=O)C(CCNc2cc(C(F)(F)F)ccn2)=C(C)C1=O [2,3,5-Trimethyl-6-(2-(4-(trifluoromethyl)pyridin-2-ylamino)ethyl)cyclohexa-2,5-diene-1,4-dione]
< 100 nM: all assays above

CC1=C(C)C(=O)C(CCNc2nccc(C(F)(F)F)n2)=C(C)C1=O [2,3,5-Trimethyl-6-(2-(4-(trifluoromethyl)pyrimidin-2-ylamino)ethyl)cyclohexa-2,5-diene-1,4-dione]
< 100 nM: all assays above

CC1=C(C)C(=O)C(CCNc2ccccn2)=C(C)C1=O [2,3,5-Trimethyl-6-(2-(pyridin-2-ylamino)ethyl)cyclohexa-2,5-diene-1,4-dione]
< 100 nM: all assays above

CC1=C(C)C(=O)C(CCNc2cccc(C(F)(F)F)n2)=C(C)C1=O [2,3,5-Trimethyl-6-(2-(6-(trifluoromethyl)pyridin-2-ylamino)ethyl)cyclohexa-2,5-diene-1,4-dione]
< 100 nM: all assays above

CC1=C(C)C(=O)C(CCNc2nccc(F)n2)=C(C)C1=O [2-(2-(4-Fluoropyrimidin-2-ylamino)ethyl)-3,5,6-trimethylcyclohexa-2,5-diene-1,4-dione]
< 100 nM: all assays above

CC1=C(C)C(=O)C(CCNc2ncc(F)cn2)=C(C)C1=O [2-(2-(5-Fluoropyrimidin-2-ylamino)ethyl)-3,5,6-trimethylcyclohexa-2,5-diene-1,4-dione]
< 100 nM: all assays above

CC1=C(C)C(=O)C(CCNc2ncccc2C(F)(F)F)=C(C)C1=O [2,3,5-Trimethyl-6-(2-(3-(trifluoromethyl)pyridin-2-ylamino)ethyl)cyclohexa-2,5-diene-1,4-dione]
< 100 nM: all assays above

CC1=C(C)C(=O)C(CCNc2ncccn2)=C(C)C1=O [2,3,5-Trimethyl-6-(2-(pyrimidin-2-ylamino)ethyl)cyclohexa-2,5-diene-1,4-dione]
< 100 nM: all assays above
